Test results published in US20260285850A1, “SUBSTITUTED OXAZOLIDINONES AND IMIDAZOLINONES AS HERBICIDES” (FMC CORPORATION, priority 2023, published 2026).

What was measured:
Assay type in all cases: in vivo
[1] = system: green foxtail (Setaria viridis); experiment: Test A preemergence soil spray, visual injury rating 0-100; conditions: 10 days
Outline: (§1)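 Preemergence directed soil spray or postemergence spray (2-10 cm, 1-2 leaf); loam/sand mix; compound in non-phytotoxic solvent + surfactant. Greenhouse, 10 d. Visual injury vs untreated, 0 = none, 100 = complete control.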

kochia (Bassia scoparia) [2] = experiment: as above; conditions: 10 days
Outline: as §1

soybean (Glycine max) [3] = experiment: as above; conditions: 10 days
Outline: as §1

[4] = system: blackgrass (Alopecurus myosuroides); experiment: as above; conditions: 10 days
Outline: as §1

[5] = system: barnyardgrass (Echinochloa crus-galli); experiment: as above; conditions: 10 days
Outline: as §1

[6] = system: ryegrass, Italian (italian ryegrass, Lolium multiflorum); experiment: as above; conditions: 10 days
Outline: as §1

corn (Zea mays) [7] = experiment: as above; conditions: 10 days
Outline: as §1

[8] = system: oat, wild (wild oat, Avena fatua); experiment: as above; conditions: 10 days
Outline: as §1

[9] = system: wheat (Triticum aestivum); experiment: as above; conditions: 10 days
Outline: as §1

[10] = system: ragweed (common ragweed, Ambrosia artemisiifolia); experiment: as above; conditions: 10 days
Outline: as §1

rice (Oryza sativa) = experiment: Test B flooded paddy test, visual plant response rating 0-100; conditions: 250 g ai/ha, Flood, applied to paddy water, evaluated after 13 days
Outline: (§2)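 Plants were grown to the 2-leaf stage, then pots were flooded to 3 cm above the soil and test compounds were applied directly into the paddy water. Water depth was held there throughout; after 13 days in a greenhouse, injury was scored visually against untreated controls.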

[11] = system: barnyardgrass (Echinochloa crusgalli); experiment: as above; conditions: 250 g ai/ha, Flood, applied to paddy water, evaluated after 13 days
Outline: as §2

[12] = system: ducksalad (Heteranthera limosa); experiment: as above; conditions: 250 g ai/ha, Flood, applied to paddy water, evaluated after 13 days
Outline: as §2

[13] = system: sedge, umbrella (small-flower umbrella sedge, Cyperus difformis); experiment: as above; conditions: 250 g ai/ha, Flood, applied to paddy water, evaluated after 13 days
Outline: as §2

[14] = system: horseweed (Erigeron canadensis); experiment: Test A postemergence application, visual injury rating 0-100
Outline: as §1

[15] = system: galium (catchweed bedstraw, Galium aparine); experiment: as above
Outline: as §1

[16] = system: green foxtail (Setaria viridis); experiment: as above
Outline: as §1

kochia (Bassia scoparia) [17] = experiment: as above
Outline: as §1

soybean (Glycine max) [18] = experiment: as above
Outline: as §1

[19] = system: blackgrass (Alopecurus myosuroides); experiment: as above
Outline: as §1

[20] = system: barnyardgrass (Echinochloa crus-galli); experiment: as above
Outline: as §1

[21] = system: palmer (palmer amaranth, palmer pigweed, Amaranthus palmeri); experiment: as above
Outline: as §1

[22] = system: ryegrass, Italian (italian ryegrass, Lolium multiflorum); experiment: as above
Outline: as §1

corn (Zea mays) [23] = experiment: as above
Outline: as §1

[24] = system: oat, wild (wild oat, Avena fatua); experiment: as above
Outline: as §1

[25] = system: wheat (Triticum aestivum); experiment: as above
Outline: as §1

[26] = system: ragweed (common ragweed, Ambrosia artemisiifolia); experiment: as above
Outline: as §1

[27] = 62 g ai/ha, 0 = no effect, 100 = complete control
[28] = 62 g ai/ha, postemergence, 10 days, 0 = no effect, 100 = complete control
[29] = Postemergence, 16 g ai/ha, greenhouse 10 days, 0 no effect, 100 complete control

CC1(C(=O)NC2CC(C(=O)O)C2)CN(c2cc(F)cc(Cl)c2)C(=O)O1 (racemic) [Compound 139]
90: Foxtail, Green plant response rating (0-100) [1, 27] | Kochia plant response rating (0-100) (kochia (Bassia scoparia) [2]; [27]) | Ryegrass, Italian plant response rating (0-100) [6, 27] | Corn plant response rating (0-100) (corn (Zea mays) [7]; [27]) | Wheat plant response rating ([9]; 16 g ai/ha, 0 to 100 scale) | Wheat plant response rating (0-100) [9, 27] | Foxtail, Green plant response rating (0-100) [16, 28] | Foxtail, Green plant response rating (0 to 100 scale) [16, 29] | Kochia plant response rating (0-100) (kochia (Bassia scoparia) [17]; [28]) | Blackgrass plant response rating (0 to 100 scale) [19, 29] | Barnyardgrass plant response rating (0 to 100 scale) [20, 29] | Oat, Wild plant response rating (0-100) [24, 28] | Wheat plant response rating (0-100) [25, 28] | Wheat plant response rating (0 to 100 scale) [25, 29]
20: Blackgrass plant response rating ([4]; 16 g ai/ha, 0 to 100 scale) | Oat, Wild plant response rating ([8]; 16 g ai/ha, 0 to 100 scale) | Pigweed, Palmer plant response rating (0 to 100 scale) [21, 29]
10: Barnyardgrass plant response rating ([5]; 16 g ai/ha, 0 to 100 scale)
100: Blackgrass plant response rating (0-100) [19, 28] | Barnyardgrass plant response rating (0-100) [20, 28] | Corn plant response rating (0-100) (corn (Zea mays) [23]; [28]) | Corn plant response rating (0 to 100 scale) (corn (Zea mays) [23]; [29])
50: Horseweed plant response rating (0-100) [14, 28] | Galium plant response rating (0 to 100 scale) [15, 29]
40: Ragweed plant response rating (0-100) [26, 28] | Ragweed plant response rating (0 to 100 scale) [26, 29]
80: Blackgrass plant response rating (0-100) [4, 27] | Oat, Wild plant response rating (0-100) [8, 27] | Galium plant response rating (0-100) [15, 28]
0: Kochia plant response rating (kochia (Bassia scoparia) [2]; 16 g ai/ha, 0 to 100 scale) | Soybean plant response rating (soybean (Glycine max) [3]; 16 g ai/ha, 0 to 100 scale) | Soybean plant response rating (0-100) (soybean (Glycine max) [3]; [27]) | Corn plant response rating (corn (Zea mays) [7]; 16 g ai/ha, 0 to 100 scale) | Ragweed plant response rating ([10]; 16 g ai/ha, 0 to 100 scale) | Ragweed plant response rating (0-100) [10, 27] | Plant response rating, Rice (0 to 100 scale, 0 is no effect and 100 is complete control) (rice (Oryza sativa)) | Plant response rating, Barnyardgrass (0 to 100 scale, 0 is no effect and 100 is complete control) [11] | Plant response rating, Ducksalad (0 to 100 scale, 0 is no effect and 100 is complete control) [12] | Plant response rating, Sedge, Umbrella (0 to 100 scale, 0 is no effect and 100 is complete control) [13] | Horseweed plant response rating (0 to 100 scale) [14, 29]
30: Foxtail, Green plant response rating ([1]; 16 g ai/ha, 0 to 100 scale) | Ryegrass, Italian plant response rating ([6]; 16 g ai/ha, 0 to 100 scale) | Ryegrass, Italian plant response rating (0 to 100 scale) [22, 29]
70: Barnyardgrass plant response rating (0-100) [5, 27] | Kochia plant response rating (0 to 100 scale) (kochia (Bassia scoparia) [17]; [29]) | Pigweed, Palmer plant response rating (0-100) [21, 28] | Ryegrass, Italian plant response rating (0-100) [22, 28] | Oat, Wild plant response rating (0 to 100 scale) [24, 29]
60: Soybean plant response rating (0-100) (soybean (Glycine max) [18]; [28]) | Soybean plant response rating (0 to 100 scale) (soybean (Glycine max) [18]; [29])
